Test results reported in patent publication US20080102497A1, “ENZYMATIC HYDROLYSIS OF STARCH” (priority 2006, published 2008).
“And” between values parts separate entries of the source, which are not always exact repeats. Equal values may be shown once. Read-outs that look alike come from different tables or passages of the source.

Columns and labels:
β-amylase from barley = β-amylase from barley (Hordeum vulgare, UniProt P16098); experiment: hydrolysis of cooked corn starch varieties; type: biochemical; conditions: 10 mM Mn^++, pH 5.2, 37° C., 10 min
Method: (§1) The separate reaction mixtures were incubated at 37° C. for 10 minutes. The control reaction mixture contained enzyme, buffer, and starch but no manganese ion. The starch hydrolysis reaction was stopped by combining the reaction mixture with a solution containing DNSA and heating for 30 min at 85° C. The absorbance of the control and test samples was measured at 562 nm to monitor the amount of reducing sugar in each sample.

[1] = target: T1, glucoamylase from Aspergillus Niger (Aspergillus niger, UniProt P69328); conditions: for Relative Activity: raw corn starch, pH 5.3, 37° C., 20 min
Method: Thereafter, 40 μl of each pre-incubation solution was added to 15 mg raw corn starch, and the reaction mixture incubated at 37° C. for 20 minutes. The control reaction mixture contained substrate, enzyme, and buffer but no manganese ion. The starch hydrolysis reaction was stopped by combining the reaction mixture with a solution containing DNSA and heating for 30 min at 85° C. The absorbance of the control and test samples was measured at 562 nm to monitor the amount of reducing sugar in each sample.

[2] = test system: glucoamylase from Rhizopus sp.; experiment: effect of pre-incubation of Mn^++ with enzyme or starch on raw corn starch conversion; type: biochemical; conditions: for % conversion of the starch substrate: reaction 37° C., pH 5.3
Method: The glucoamylase from Rhizopus sp. Or raw corn starch substrate were pre-incubated in a sodium acetate buffer, pH 5.3, with 1.0 mM Mn^++ for 0, 20, 40, or 60 min at 22° C. The enzyme pre-incubation solutions were then combined with 15 mg raw corn starch to provide a reaction mixture that was incubated at 37° C. for 5 minutes. The starch pre-incubation solutions were combined with an enzyme solution containing the glucoamylase from Rhizopus sp and buffer to provide a reaction mixture that was incubated at 37° C. for 5 minutes or 10 minutes.

[3] = target: T1, glucoamylase from Aspergillus Niger; conditions: pH 5.2, 37° C., 10 min
Method: as §1, with “The” for “The separate reaction mixtures were incubated at 37° C. for 10 minutes. The”

T1 sequence (P69328 25-640): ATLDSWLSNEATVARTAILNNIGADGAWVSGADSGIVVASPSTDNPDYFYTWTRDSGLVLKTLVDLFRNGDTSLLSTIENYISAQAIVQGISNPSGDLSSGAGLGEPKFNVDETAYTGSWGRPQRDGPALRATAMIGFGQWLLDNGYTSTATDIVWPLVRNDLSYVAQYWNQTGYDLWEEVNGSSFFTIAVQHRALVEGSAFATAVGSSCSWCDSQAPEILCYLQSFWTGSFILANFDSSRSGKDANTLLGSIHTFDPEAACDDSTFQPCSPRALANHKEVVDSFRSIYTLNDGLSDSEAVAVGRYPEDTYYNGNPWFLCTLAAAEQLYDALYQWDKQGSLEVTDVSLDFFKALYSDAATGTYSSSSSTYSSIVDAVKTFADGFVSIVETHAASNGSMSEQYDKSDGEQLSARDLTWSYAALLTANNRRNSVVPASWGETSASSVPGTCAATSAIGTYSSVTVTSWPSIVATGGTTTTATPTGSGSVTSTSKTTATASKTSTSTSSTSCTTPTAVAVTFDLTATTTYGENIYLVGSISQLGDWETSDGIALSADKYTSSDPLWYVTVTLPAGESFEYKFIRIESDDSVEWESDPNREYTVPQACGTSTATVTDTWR
Sequence of β-amylase from barley (P16098 whole entry): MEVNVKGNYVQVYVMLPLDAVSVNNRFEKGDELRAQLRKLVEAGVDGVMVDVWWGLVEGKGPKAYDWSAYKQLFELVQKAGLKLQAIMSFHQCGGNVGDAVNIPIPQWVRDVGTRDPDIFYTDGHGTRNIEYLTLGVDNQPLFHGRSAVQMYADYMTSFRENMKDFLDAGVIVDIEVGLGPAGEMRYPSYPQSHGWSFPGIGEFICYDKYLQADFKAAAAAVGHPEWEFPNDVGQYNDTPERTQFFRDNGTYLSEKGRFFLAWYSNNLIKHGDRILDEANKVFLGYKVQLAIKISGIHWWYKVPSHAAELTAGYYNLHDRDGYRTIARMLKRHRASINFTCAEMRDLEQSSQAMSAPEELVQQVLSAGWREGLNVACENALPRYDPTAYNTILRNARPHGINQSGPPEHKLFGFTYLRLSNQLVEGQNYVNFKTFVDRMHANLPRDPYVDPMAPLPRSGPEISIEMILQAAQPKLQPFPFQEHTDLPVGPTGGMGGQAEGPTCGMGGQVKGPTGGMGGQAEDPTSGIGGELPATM

[Mn+2] [Mn^++, manganese ions]
Relative Activity (β-amylase from barley; cooked dent corn starch 0.5%): 210.1%
Relative Activity (β-amylase from barley; cooked high-amylose V corn starch 0.5%): 184.5%
Relative Activity (β-amylase from barley; cooked soluble corn starch 0.5%): 199.6%
Relative Activity (β-amylase from barley; cooked waxy corn starch 0.5%): 237.4%
Relative Activity ([1]; 0.01 mM Mn^++): 94.4%
Relative Activity ([1]; 0.1 mM Mn^++): 111.2%
Relative Activity ([1]; 1 mM Mn^++): 127.1%
Relative Activity ([1]; 10 mM Mn^++): 160.6%
effect on hydrolysis of raw corn starch (in words) ([1]; summary of Table 4): enhances the hydrolysis of raw corn starch
% conversion of the starch substrate ([2]; 1.0 mM Mn^++ pre-incubated with glucoamylase 0 min at 22° C., 5 min, raw corn starch): 0.42%
% conversion of the starch substrate ([2]; 1.0 mM Mn^++ pre-incubated with glucoamylase 20 min at 22° C., 5 min, raw corn starch): 0.35%
% conversion of the starch substrate ([2]; 1.0 mM Mn^++ pre-incubated with glucoamylase 40 min at 22° C., 5 min, raw corn starch): 0.38%
% conversion of the starch substrate ([2]; 1.0 mM Mn^++ pre-incubated with glucoamylase 60 min at 22° C., 5 min, raw corn starch): 0.38%
% conversion of the starch substrate ([2]; 1.0 mM Mn^++ pre-incubated with raw corn starch 0 min at 22° C., 5 min): 0.51%
% conversion of the starch substrate ([2]; 1.0 mM Mn^++ pre-incubated with raw corn starch 0 min at 22° C., 10 min): 0.73%
% conversion of the starch substrate ([2]; 1.0 mM Mn^++ pre-incubated with raw corn starch 20 min at 22° C., 5 min): 0.48%
% conversion of the starch substrate ([2]; 1.0 mM Mn^++ pre-incubated with raw corn starch 20 min at 22° C., 10 min): 0.79%
% conversion of the starch substrate ([2]; 1.0 mM Mn^++ pre-incubated with raw corn starch 40 min at 22° C., 5 min): 0.50%
% conversion of the starch substrate ([2]; 1.0 mM Mn^++ pre-incubated with raw corn starch 40 min at 22° C., 10 min): 0.81%
% conversion of the starch substrate ([2]; 1.0 mM Mn^++ pre-incubated with raw corn starch 60 min at 22° C., 5 min): 0.58%
% conversion of the starch substrate ([2]; 1.0 mM Mn^++ pre-incubated with raw corn starch 60 min at 22° C., 10 min): 0.80%
effect of pre-incubation on activation by Mn^++ (in words) ([2]; pre-incubation of Mn^++ with enzyme or with starch, 0-60 min): does not significantly influence the activation effect
Relative Activity ([3]; 0.01 mM Mn^++, cooked barley starch 0.5%): 111.1%
Relative Activity ([3]; 0.01 mM Mn^++, cooked pea starch 0.5%): 121.1%
Relative Activity ([3]; 0.01 mM Mn^++, cooked potato starch 0.5%): 112.0%
Relative Activity ([3]; 0.01 mM Mn^++, cooked rice starch 0.5%): 109.3%
Relative Activity ([3]; 0.01 mM Mn^++, cooked soluble potato starch 0.5%): 104.0% and 115.7%
Relative Activity ([3]; 0.01 mM Mn^++, cooked tapioca starch 0.5%): 109.5%
Relative Activity ([3]; 0.01 mM Mn^++, cooked wheat starch 0.5%): 111.9%
Relative Activity ([3]; 0.1 mM Mn^++, cooked barley starch 0.5%): 117.5%
Relative Activity ([3]; 0.1 mM Mn^++, cooked pea starch 0.5%): 124.0%
Relative Activity ([3]; 0.1 mM Mn^++, cooked potato starch 0.5%): 118.8%
Relative Activity ([3]; 0.1 mM Mn^++, cooked rice starch 0.5%): 129.3%
Relative Activity ([3]; 0.1 mM Mn^++, cooked soluble potato starch 0.5%): 121.0% and 130.1%
Relative Activity ([3]; 0.1 mM Mn^++, cooked tapioca starch 0.5%): 126.0%
Relative Activity ([3]; 0.1 mM Mn^++, cooked wheat starch 0.5%): 122.2%
Relative Activity ([3]; 1 mM Mn^++, cooked barley starch 0.5%): 120.4%
Relative Activity ([3]; 1 mM Mn^++, cooked pea starch 0.5%): 138.0%
Relative Activity ([3]; 1 mM Mn^++, cooked potato starch 0.5%): 138.5%
Relative Activity ([3]; 1 mM Mn^++, cooked rice starch 0.5%): 144.0%
Relative Activity ([3]; 1 mM Mn^++, cooked soluble potato starch 0.5%): 140.0% and 79.9%
Relative Activity ([3]; 1 mM Mn^++, cooked tapioca starch 0.5%): 135.7%
Relative Activity ([3]; 1 mM Mn^++, cooked wheat starch 0.5%): 142.5%
Relative Activity ([3]; 10 mM Mn^++, cooked barley starch 0.5%): 172.6%
Relative Activity ([3]; 10 mM Mn^++, cooked pea starch 0.5%): 179.8%
Relative Activity ([3]; 10 mM Mn^++, cooked potato starch 0.5%): 200.0%
Relative Activity ([3]; 10 mM Mn^++, cooked rice starch 0.5%): 209.2%
Relative Activity ([3]; 10 mM Mn^++, cooked tapioca starch 0.5%): 183.8%
Relative Activity ([3]; 10 mM Mn^++, cooked wheat starch 0.5%): 185.4%
